From ChEMBL document CHEMBL1201862, “PubChem BioAssay data set” (2004)
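Cultured in 96-well plates, cells were exposed to test compound for 48 hours across five concentrations. At the GI50, growth is halved.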 The source made the active and inactive calls. No stated cut-off is given here; in the data, active = GI50 up to about 1.1 µM and inactive = higher.

Legend:
Assay in all cases: NCI-60 cell line screen, 48 h
[1] = test system: ACHN
[2] = test system: BT-549
[3] = test system: CCRF-CEM
[4] = test system: HCT-15
[5] = test system: Hs-578T
[6] = test system: K562
[7] = test system: KM12
[8] = test system: M14
[9] = test system: NCI-H23
[10] = test system: NCI/ADR-RES
[11] = test system: OVCAR-8
[12] = test system: SF-268
[13] = test system: SF-295
[14] = test system: SN12C
[15] = test system: TK-10
[16] = test system: UO-31
[17] = test system: LOX IMVI
[18] = test system: MDA-N
[19] = test system: SK-MEL-5

Row | Structure (SMILES) | GI50 [1] | GI50 [2] | GI50 [3] | GI50 [4] [µM] | GI50 [5] | GI50 [6] | GI50 [7] | GI50 [8] | GI50 [9] | GI50 [10] | GI50 [11] | GI50 [12] | GI50 [13] | GI50 [14] | GI50 [15] | GI50 [16] | GI50 [17] | GI50 [18] | GI50 [19]
1 | CCOC(=O)c1cc(-c2cc(OC)c(OC)c([N+](=O)[O-])c2)c([N+](=O)[O-])n1C | 9.04 µM (inactive) | > 10 µM (inactive) | 3.24 µM (inactive) | 4.58 | 4.21 µM (inactive) | 2.83 µM (inactive) | 4 µM (inactive) | 8.57 µM (inactive) | 6.37 µM (inactive) | 3.94 µM (inactive) | > 10 µM (inactive) | > 10 µM (inactive) | 3.42 µM (inactive) | 6.7 µM (inactive) | > 10 µM (inactive) | > 10 µM (inactive) |  |  | 
2 | CC(=O)NCc1nc(C#N)c(N)o1 | > 100 µM (inactive) |  | > 100 µM (inactive) | > 100 | > 100 µM (inactive) | > 100 µM (inactive) | > 100 µM (inactive) | > 100 µM (inactive) | > 100 µM (inactive) | > 100 µM (inactive) | > 100 µM (inactive) | > 100 µM (inactive) | > 100 µM (inactive) | > 100 µM (inactive) | > 100 µM (inactive) | > 100 µM (inactive) | > 100 µM (inactive) | > 100 µM (inactive) | 
3 | CN1CCN(c2nc3ccccc3nc2C(=O)c2ccc(Cl)cc2)CC1 | > 100 µM (inactive) |  | 48.6 µM (inactive) | 55.6 | 56.2 µM (inactive) | 40.8 µM (inactive) | 35.1 µM (inactive) | 22.2 µM (inactive) | 49.4 µM (inactive) | 54.5 µM (inactive) | 69 µM (inactive) | 46.9 µM (inactive) | 36.3 µM (inactive) |  | 35.6 µM (inactive) | 31 µM (inactive) | 40.6 µM (inactive) | 36.9 µM (inactive) | 14.5 µM (inactive)
4 | COc1ccc2c(C(=O)c3cn(CCN4CCOCC4)c4ccccc34)cccc2c1 | > 96.4 µM (inactive) | > 95.5 µM (inactive) | 4.45 µM (inactive) | 51.8 |  | 36.6 µM (inactive) | 3.95 µM (inactive) | > 31.1 µM (inactive) | > 100 µM (inactive) | > 34.4 µM (inactive) | 43 µM (inactive) | > 80.2 µM (inactive) | 5.6 µM (inactive) | > 71.4 µM (inactive) | > 100 µM (inactive) | > 32 µM (inactive) | 22.3 µM (inactive) | 37.8 µM (inactive) | 60 µM (inactive)
5 | COC(=O)C(Cc1nc2ccccc2nc1O)C(NO)C(=O)Nc1c(Cl)cc([N+](=O)[O-])cc1Cl (stereo not given) | 35.6 µM (inactive) |  | 23.3 µM (inactive) | 49.2 |  | 40.8 µM (inactive) | 33.7 µM (inactive) | 50.1 µM (inactive) | 22.4 µM (inactive) |  | 30.4 µM (inactive) | 32.8 µM (inactive) | 27.7 µM (inactive) | 45.3 µM (inactive) |  | 36.1 µM (inactive) |  |  | 18 µM (inactive)
6 | Cc1cc(-c2c(Br)cc(C(=O)O)n2C)on1 | > 100 µM (inactive) | > 100 µM (inactive) | > 100 µM (inactive) | > 100 |  | > 100 µM (inactive) | > 100 µM (inactive) | > 100 µM (inactive) | > 100 µM (inactive) | > 100 µM (inactive) | > 100 µM (inactive) | > 100 µM (inactive) | > 100 µM (inactive) | > 100 µM (inactive) | > 100 µM (inactive) | > 100 µM (inactive) | > 100 µM (inactive) | > 100 µM (inactive) | > 100 µM (inactive)
7 | CN1C(=O)C(O)CC1c1cccc(F)c1 (stereo not given) | > 100 µM (inactive) | > 100 µM (inactive) | > 100 µM (inactive) | > 100 |  | > 100 µM (inactive) | > 100 µM (inactive) | > 100 µM (inactive) | > 100 µM (inactive) | > 100 µM (inactive) | > 100 µM (inactive) |  | > 100 µM (inactive) | > 100 µM (inactive) |  | > 100 µM (inactive) | > 100 µM (inactive) | > 100 µM (inactive) | > 100 µM (inactive)
8 | COc1ccc(/N=N/c2ccc3oc(=O)c(C(=O)Nc4ccccc4C)cc3c2)cc1 | 8.3 µM (inactive) |  |  | > 10 | > 10 µM (inactive) |  | > 10 µM (inactive) | > 10 µM (inactive) | > 10 µM (inactive) | > 10 µM (inactive) | > 10 µM (inactive) | > 10 µM (inactive) | > 10 µM (inactive) | > 10 µM (inactive) | > 10 µM (inactive) | > 10 µM (inactive) | > 10 µM (inactive) | > 10 µM (inactive) | > 10 µM (inactive)
9 | CCN(CC)C(=S)S [DITIOCARB SODIUM] | 53.7 µM (inactive) |  | 0.0443 µM (active) | > 62.5 |  | 0.138 µM (active) | 0.646 µM (active) | 41.7 µM (inactive) |  |  | > 56.1 µM (inactive) | > 79.1 µM (inactive) | > 79.6 µM (inactive) | > 70 µM (inactive) | > 100 µM (inactive) | > 100 µM (inactive) | > 55.5 µM (inactive) |  | 1.63 µM (inactive)
